Measurements as given in patent publication US9617545B2, “Method for treating breast cancer by targeting breast cancer stem cell” (KYUNGPOOK NATIONAL UNIVERSITY INDUSTRY-ACADEMIC COOPERATION …, priority 2014, dated 2017).

Tests used:
[1] = tested on: xenografted tumor; settings: administered to an animal into which tumor has been xenografted; cited from earlier work
[2] = tested on: common cancer cells; experiment: Cell viability of common cancer cells under gene expression inhibitor; assay type: cell-based; settings: treatment with the gene expression inhibitor; summary statement
[3] = tested on: MCF7/ADR cells; experiment: Mammosphere formation assay after siRNA silencing; assay type: cell-based, human; settings: for self-proliferation ability: genes silenced in the resistant cells, summary statement; for number and size of the mammospheres: MCF7/ADR cells, compared to the control, FIG. 10
Protocol: Since the breast cancer stem cells formed a mass of colonies in the form of floating spheres without attaching to a surface of a plate, the size and number of the masses were observed by a mammosphere formation assay to determine a cancer-stem-cell-specific effect.
Specifically, a single-cell suspension was cultured at a density of 1,000 to 15,000 cells/well (on an ultralow attachment culture plate (Corning CoStar)) using a MammoCult™ Human Medium kit (Stem Cell Technologies), and the spherical cells were counted and observed under a microscope.
(§1) siRNA transfection was performed using a Neon® Transfection system (Life technologies). After 48 hours, the expression of each gene was analyzed using qRT-PCR.
To determine whether the EXT1 and LDHB regulated the self-renewal capacity of CSCs in the MCF7/ADR cells, a mammosphere formation assay was performed.

[4] = tested on: MCF7/ADR cells; experiment: CD44+/CD24− assay (flow cytometric assay) after siRNA silencing; assay type: cell-based, human; settings: for number of the cancer stem cells: genes silenced in the resistant cells, summary statement; for CD44+/CD24− population decreased by: MCF7/ADR cells transfected with siRNA, FIG. 9A
Protocol: To detect cancer stem cells (CSCs) in the MCF7 and MCF7/ADR cells, a breast cancer stem cell surface antigen, CD44+/CD24−, was assayed.
Specifically, the 1×10^6 cells were labeled with anti-human CD44-APC and CD24-PE (BD biosciences). In this case, the antibody was diluted with a 5% BSA solution. The cells were cultured at room temperature for 25 minutes, washed, re-suspended in […] of 5% BSA, and then detected using BD FACS Aria III.
as §1

[5] = tested on: MCF7/ADR cells; experiment: qRT-PCR of CSC, resistance and EMT markers after siRNA silencing; assay type: cell-based, human; settings: for mRNA expression of markers (CD44, N-cadherin): FIG. 8B; for mRNA expression of markers (CD44, Integrin-α6, P-gp, Vimentin, N-cadherin, E-cadherin): FIG. 8A
Protocol: Total RNAs were extracted from the cultured cells using a TRIzoL reagent (Invitrogen), and cDNAs were synthesized using a cDNA synthetic kit (Promega) for reverse transcription-PCR.
In this case, the real-time PCR was performed in a Bio-Rad Real-Time PCR system using a SYBR Green PCR Master mix (Applied Biosystems), and the data was obtained by calculating an average value for separate experiments performed in at least triplicate.
as §1
Therefore, to determine whether EXT1, LDHB, CD109, EFEMP2, RASIP1, and SERPINE1 were associated with the aggressive phenotype of cancer, the mRNA expression levels of cancer stem cell markers (CD44, and Integrin-α6 (ITGA6)), a resistance marker (P-gp), and EMT markers (Vimentin, N-cadherin, and E-cadherin) were determined using qRT-PCR.

[6] = tested on: PI3K-β-catenin signaling pathway; experiment: Western blot of PI3K-β-catenin signaling pathway factors after siRNA treatment; assay type: cell-based, human; settings: MCF7/ADR cells treated with siRNA; FIG. 11
Protocol: (§2) Proteins were electrophoresed on SDS-PAGE, and the separated proteins were transferred to a nitrocellulose membrane (Whatman), and then blocked at room temperature for 15 minutes in a TBS-5% non-fat milk solution supplemented with 0.1% Tween-20. The membrane was cultured overnight with a primary antibody at 4° C., cultured with a horseradish peroxidase-conjugated secondary antibody at room temperature for an hour, and developed using a West Pico chemiluminescent substrate (PIERCE).
(§3) The primary antibodies used herein were P-gp (Cell Signaling Technology, #12683, 1:1000), p-PI3K (Santa Cruz Biotechnology, sc-12929, 1:500), PI3K (Santa Cruz Biotechnology, sc-1637, 1:500), p-Akt (Cell Signaling Technology, #9271, 1:1000), Akt (Cell Signaling Technology, #9272, 1:1000), β-catenin (Cell Signaling Technology, #9562, 1:1000), and β-actin (Santa Cruz Biotechnology, sc-47778, 1:500).
as §1
Wnt signaling is a major pathway for maintaining stemness, and β-catenin is a particularly important regulator. Also, since the PI3K-Akt signaling pathway is known from previous research to regulate a Wnt-β-catenin signaling pathway, it was determined how the EXT1 and LDHB genes regulated the stemness, and whether the EXT1 and LDHB genes were associated with the pathways.
Therefore, it was confirmed that, when the MCF7/ADR cells were treated with siRNAs against the EXT1, LDHB, CD109, EFEMP2, RASIP1 and SERPINE1 genes (Table 3), the expression of β-catenin decreased, and the expression of phosphorylated PI3K (p-PI3K) in an active form of PI3K, and phosphorylated Akt (p-Akt) in an active form of Akt […] (see FIG. 11).

[7] = tested on: P-glycoprotein (P-gp); experiment: Western blotting of P-gp after siRNA knockdown in MCF7/ADR cells; assay type: cell-based, human; settings: gene silenced with siRNA 20 nM, FIG. 7
Protocol: as §2, §3, §1
To further evaluate whether the six genes finally screened in Example 4 regulated the drug resistance and the size and number of CSC populations, the genes were knocked down with siRNA, and an expression level of P-gp was determined using western blotting. That is, the MCF7/ADR cells were transfected with siRNA of each gene, and an expression level of P-gp was measured.

[8] = tested on: MCF7/ADR cells; experiment: ALDEFLUOR assay (ALDH+ population) after siRNA silencing; assay type: cell-based, human; settings: MCF7/ADR cells transfected with siRNA; FIG. 9B
Protocol: Specifically, the cells were stained with […] bodipyaminoacetaldehyde (BAAA), and then cultured at 37° C. for 45 minutes. An ALDH1 inhibitor, diethylaminobenzaldehyde (DEAB), was used as the negative control. The 1 ×10^6 stained cells were assayed using BD FACS Aria III. In this case, the positive fluorescent ALDH1-expressed cells (ALDH+) were detected in a green fluorescent channel (520 to 540 nm).
as §1

| Molecule | tumor size in xenografted animal [1] | cell viability of common cancer cells [2] | self-proliferation ability [3] | number of the cancer stem cells [4] | mRNA expression of markers (CD44, N-cadherin) [5] | expression of phosphorylated Akt (p-Akt) [6] | expression of phosphorylated PI3K (p-PI3K) [6] | expression of β-catenin [6] | expression of P-glycoprotein [7] | number and size of the mammospheres [3] | CD44+/CD24− population decreased by [4] | ALDH+ population decreased by [8] | mRNA expression of markers (CD44, Integrin-α6, P-gp, Vimentin, N-cadherin, E-cadherin) [5] |
| --- | --- | --- | --- | --- | --- | --- | --- | --- | --- | --- | --- | --- | --- |
| CC1=C2C[C@H]3[C@@H](CC=C4C[C@@H](O)CC[C@@]43C)[C@@H]2CC[C@]12O[C@@H]1C[C@H](C)CN[C@H]1[C@H]2C [cyclopamine] | dramatically contracted |  |  |  |  |  |  |  |  |  |  |  |  |
| siCD109: siRNA against CD109 gene (Bioneer siRNA No. 1027641); sense SEQ ID NO: 5, anti-sense SEQ ID NO: 6 (sense GAGUACUGGAGCGGAUCUA; antisense UAGAUCCGUCCAGUACUC; listed as RNA, chemistry not given here) |  | no change | lowered | decreased | reduced | increased | increased | decreased | down-regulated |  |  |  |  |
| siEFEMP2: siRNA against EFEMP2 gene (Bioneer siRNA No. 1045872); sense SEQ ID NO: 7, anti-sense SEQ ID NO: 8 (sense CCCAAACCUGUGUCAACUU; antisense AAGUUGACACAGGUUUGGG; listed as RNA, chemistry not given here) |  | no change | lowered | decreased | reduced | increased | increased | decreased | down-regulated |  |  |  |  |
| siEXT1: siRNA against EXT1 gene (Bioneer siRNA No. 1049149); sense SEQ ID NO: 1, anti-sense SEQ ID NO: 2 (sense CACUUCUGGAUAACUCUA; antisense UAGAGUUAUCCCAGAAGUG; listed as RNA, chemistry not given here) |  | no change | lowered | decreased |  | increased | increased | decreased | down-regulated | significantly reduced | approximately 5.09% | approximately 2.1% | reduced |
| siLDHB: siRNA against LDHB gene (Bioneer siRNA No. 1083399); sense SEQ ID NO: 3, anti-sense SEQ ID NO: 4 (sense GAUUCAUCCCGUGUCAACA; antisense UGUUGACACGGGAUGAAUC; listed as RNA, chemistry not given here) |  | no change | lowered | decreased |  | increased | increased | decreased | down-regulated | significantly reduced | ~5.52% | ~3.21% | reduced |
| siRASIP1: siRNA against RASIP1 gene (Bioneer siRNA No. 1126933); sense SEQ ID NO: 9, anti-sense SEQ ID NO: 10 (sense CUGGAUAGUAACCCUUUCA; antisense UGAAAGGGUUACUAUCCAG; listed as RNA, chemistry not given here) |  | no change | lowered | decreased | reduced | increased | increased | decreased | down-regulated |  |  |  |  |
| siSERPINE1: siRNA against SERPINE1 gene (Bioneer siRNA No. 1135690); sense SEQ ID NO: 11, anti-sense SEQ ID NO: 12 (sense CACACAAAAGGUAUGAUCA; antisense UGAUCAUACCUUUUGUGUG; listed as RNA, chemistry not given here) |  | no change | lowered | decreased | reduced | increased | increased | decreased | down-regulated |  |  |  |  |
